The values below come from patent publication US20210364497A1, “IFN-beta Reporter System for Primary Cells” (UNIVERSITY OF MIAMI, priority 2018, published 2021).

The test system of the assay is Human IFNβ promoter. Nature of the assay: GLuc/SEAP dual reporter assay of the IFNβ promoter in hTERT-pIFNβ-GLuc cells. It counts as cell-based. The settings on record: FIG. 3B; hTERT-pIFNB-Gluc cells treated, 3 μg/ml, 24 hours. How it is done:
Human IFNβ promoter (sequence in FIG. 1) was cloned into Lentiviral vector pEZX-LvPG04 at GeneCopoeia. Lentiviral plasmid was co-transfected with LentiViral Package System (LENT-PACT™) into 293T cells using Lipofectamine 2000. 293T medium containing Lentiviral particles was collected 48 hours post transfection, filtered through 0.2 μM filter, and transduced to pre-seeded hTERT cells in the presence of 10 μg/ml polybrene. Transduction was repeated twice in 2 consecutive days. 48 hours after the last transduction, hTERT cells were selected by 2 μg/ml puromycin for 4 weeks. Single colonies of transduced hTERT cells were puromycin selected, and expanded for IENβ promoter-luciferase assay validation.
To test the establishment of GLuc/SEAP-ρIENs1 reporter system, hTERT clones were mock treated (lipo) or transfected with synthetic double-stranded DNA (dsDNA). hTERT-ρIENβ-GLuc cells were transfected with synthetic 90-mer double-stranded DNA (dsDNA90) at 3 μg/ml using Lipofectamine 2000. 24 hours later, cell media was collected and analyzed for GLuc and SEAP activity using the Secrete-Pair Dual Luminescence Assay Kits (GeneCopoeia).
In additional experiments, hTERT-pIFNB-Gluc cells were treated with LPS1 (1 μg/ml) or transfected with dsDNA90 (3 μg/ml) or 2′-3′ cGAMP (3 μg/ml) for 24 hours. […]

In the case of poly I:C, the “GLuc expression (Gluc activity normalized by SEAP internal control)” value is listed as “activated”.
